Experimental data published in patent US9464326B2, “Total and phosphorylated IL-1 receptor-associated kinase-1 and IL-1 receptor-associated kinase-4 as a biomarker for cancer progression and chemotherapy resistance” (University of Maryland, Baltimore, priority 2012, dated 2016).

Legend:
[1] = system: CEM-C7; experiment: Proliferation (3H-thymidine) of CEM-C7; assay type: cell-based, human
Text: (§1) CCRF-CEM, CEM/C1, CEM/C2, CEM-C7, Jurkat, Loucy, Molt-4, HSB-2, SUP-T1, Hut 78, HH, Hut 102, MO, and H9 T-leukemia and T-lymphoma cell lines were purchased from the American Type Culture Collection (Manassas, Va., USA). All of the cell lines were initially expanded and cryopreserved within one month of receipt. Cells were typically used for 6 months at which time a fresh vial of cryopreserved cells was used. Total T cells from healthy donors were isolated via negative selection followed by positive selection using a CD3+ selection kit (Invitrogen, Carlsbad, Calif.). T cells were isolated from patients with T-ALL bone marrow or peripheral blood samples containing more than 70% leukemia cells using a CD2+ isolation kit (STEMCELL Technologies, Vancouver, Canada). All tissues were collected under institutional IRB-approved protocols and all participants gave written informed assent/consent. For in vitro experiments, T-ALL cells were cultured in AIM-V medium supplemented with 20% human AB serum in the presence of recombinant human stem cell factor (50 ng/mL; Amgen, Thousand Oaks, Calif.), insulin (20 nM; Sigma-Aldrich, St Louis, Mo., USA) and IL-7 (50 ng/mL; R&D Systems, Minneapolis, Minn., USA). In other experiments, protein lysate was collected using the Full Moon Biosystems (Sunnyvale, Calif., USA) buffer prior to protein examination by western blot or protein array.
Cells were cultured in a 96-well plate (Corning Costar, Corning, N.Y., USA) with various concentrations of TLR ligands 1-9, starting at 10 μg/ml, in a final volume of 200 ul. TLR ligands were diluted 2-fold. Cell lines (25-40×10^3/well) were cultured for 54 hours, whereas fresh patient-derived T-ALL cells (200×10^3/well) were cultured for 30 hours prior to adding [^3H]-thymidine for 18 hours. After this time point, cells were harvested with a Packard Filter-Mate-96 cell harvester (Perkin Elmer, Waltham, Mass., USA) and counted on Packard Top Count-NXT (Perkin Elmer, Waltham, Mass., USA). Results were expressed as average counts per minute (cpm). In some experiments CCRF-CEM cells were pre-treated with TLR1-TLR2 ligand (Pam3CysK4; 2.5 ug/ml) for 48 hrs, washed, and then cultured in the presence of varying concentrations of FBS. Forty-eight hours later, proliferation (±SD) was determined by ^3H-thymidine incorporation. Alternatively, apoptosis was measured by flow cytometry after staining cells with Annexin-V (BD Pharmingen, San Diego, Calif., USA) and propidium iodide (Sigma). Cell number was counted under microscopy by staining cells with trypan blue.
The following TLR ligands were purchased from Invivogen (San Diego, Calif., USA): tripalmitoyl-S-(bis(palmitoyloxy)propyl)-Cys-Ser-(Lys)3-Lys (TLR1-2); Poly I:C (TLR3); ultrapure S. Minnesota Lipopolysaccharide (TLR4); S. typhimurium flagellin (TLR5); FSL-1 (TLR2/6); Imiquimod (TLR7); ssRNA40/Lyovec (TLR8); CpG-ODN 2006 (TLR9).

[2] = system: MO; experiment: Proliferation (3H-thymidine) of MO; assay type: cell-based, human; conditions: 3H-thymidine uptake, 72 h
Text: as §1, with “In other experiments, protein lysate was collected using the Full Moon Biosystems (Sunnyvale, Calif., USA) buffer prior to protein examination by western blot or protein array.” left out
Cells were cultured in a 96-well plate (Corning Costar, Corning, N.Y., USA) with various concentrations of TLR ligands 1-9, starting at 10 μg/ml, in a final volume of 200 ul. […] After this time point, cells were harvested with a Packard Filter-Mate-96 cell harvester (Perkin Elmer, Waltham, Mass., USA) and counted on Packard Top Count-NXT (Perkin Elmer, Waltham, Mass., USA). Results were expressed as average counts per minute (cpm). […] Forty-eight hours later, proliferation (±SD) was determined by ^3H-thymidine incorporation. Alternatively, apoptosis was measured by flow cytometry after staining cells with Annexin-V (BD Pharmingen, San Diego, Calif., USA) and propidium iodide (Sigma). Cell number was counted under microscopy by staining cells with trypan blue. […]

tripalmitoyl-S-(bis(palmitoyloxy)propyl)-Cys-Ser-(Lys)3-Lys [Pam3Cysk4]
Proliferative effects of TLR ligands ([1]; 3H-thymidine uptake, 72 h): + (enhanced proliferation by 25% or greater) | TLR ligand concentration in parentheses below the symbol ([1]; no unit in table (μg/ml)): (2.5) | Proliferative effects of TLR ligands [2]: ∘
